This is an account of results in patent US20110286998A1, “METHODS FOR TREATING AND PREVENTING CANCERS THAT EXPRESS THE HYPOTHALAMIC-PITUITARY-GONADAL AXIS OF HORMONES AND RECEPTORS” (Voyager Pharmaceutical Corporation, priority 2001, published 2011).

SMILES strings stand for the structures.

The conditions of series [1]: both, dog, in vivo, sc, 34 mg.
Method: FIG. 16 presents results of a pharmacokinetic study in which male and female dogs were either injected intramuscularly with a leuprolide depot formulation or implanted subcutaneously with a leuprolide implant formulation.
Six dogs of each sex were dosed with 60 mg of Lupron Depot® by injection (males—X, females—▴) on day 1. Six dogs of each sex were dosed with single subcutaneous doses (males—▪, females—♦) of 3 DURIN™-Leuprolide 11.3 mg implants (total dose 34 mg) on day 1 and again on day 64. Serum leuprolide levels were determined and plotted against time out to 200 days.
Another series has as its system cancer cell lines. Format: cell-based. The method, then: Cell growth assays were performed as described below. CaOV3 (ATCC HTB-75) cells were plated in Dulbecco's modified Eagle's medium with 4 mM L-glutamine, 1.5 g/L sodium bicarbonate, 0.1 mM non-essential amino acids, and 10% fetal bovine serum. H358 (ATCC CRL-5807) cells were plated in RPMI 1640 medium with 2 mM L-glutamine adjusted to contain 1.5 g/L sodium bicarbonate, 4.5 g/L glucose, 10 mM HEPES, 1.0 mM sodium pyruvate and 10% fetal bovine serum. H838 (ATCC CRL-5844) cells were plated in RPMI 1640 medium with 1.5 g/L sodium bicarbonate, 4.5 g/L glucose, 10 mM HEPES, 1.0 mM sodium pyruvate, 10 U/ml insulin and 10% fetal bovine serum. […]
For cell growth assays in a 96 well format, different numbers of cells were plated, depending on the cell line (about 2000 cells/well for CaOV3, about 250 cells/well for 786-O, about 500 cells/well for H838 and H358, about 5000 cells/well for T47D and […], about 1000 cells/well for HPAC, ACHN, HT-29, MCF-7 and about 300,000 cells/well for MV4-11). […] The number of cells in each group was measured by incubating cells with WST-8 (2-(2-methoxy-4-nitrophenyl)-3-(4-nitrophenyl)-5-(2,4-disulfophenyl)-2H-tetrazolium, monosodium salt) which produces a water soluble formazan dye that was detected by measuring optical density (at 450 nm) using a μQuant™ Universal Microplate Spectrophotometer (Bio-Tek® Instruments, Inc., Winooski, Vt.).

The subject of the next series is testosterone. Particulars: in vivo; cited from earlier work.
Series [2] deals with pituitary secretion of LH and FSH. To be noted: cited from earlier work.

With `CCNC(=O)[C@@H]1CCCN1C(=O)[C@H](CCCNC(=N)N)NC(=O)[C@H](CC(C)C)NC(=O)[C@@H](CC(C)C)NC(=O)[C@H](Cc1ccc(O)cc1)NC(=O)[C@H](CO)NC(=O)[C@H](Cc1c[nH]c2ccccc12)NC(=O)[C@H](Cc1c[nH]cn1)NC(=O)[C@@H]1CCC(=O)N1` [leuprolide acetate], in series [1], the “sustained serum levels of leuprolide acetate” value lay within 5.0 to 8.0 ng/mL. Moreover, the “effect on growth of cancer cell lines” value in the series on cancer cell lines is “slows or inhibits growth in a dose dependent manner”. For the same compound, in the series with cancer cell lines (highest dose of leuprolide used in the studies), the “inhibition rates of cancer cell growth” value is listed as 10-40%. Besides, in the series with testosterone, the “serum concentrations required for testosterone suppression” value is “less than 1 ng/ml”. Besides, the “pituitary secretion of LH and FSH” value in series [2] (for several days after initial administration) is “increase”. The “LH and FSH secretion” value in series [2] (thereafter, pituitary GnRH receptors down-regulated) is reported as “significant decrease”.
